# Tested on: patients recruited within 30 days after a myocardial infarction
# Experiment: COLCOT randomized, double-blind, placebo-controlled trial: clinical efficacy end points
# Format: in vivo, human
# Conditions: for risk of ischemic cardiovascular events / primary composite efficacy end point versus placebo (in words): 0.5 mg once daily; for Total primary endpoint events, Rate Ratio (95% CI), Negative binomial model: marginal rate ratio
# Experimental: We performed a randomized, double-blind trial involving patients recruited within 30 days after a myocardial infarction. The patients were randomly assigned to receive either low-dose colchicine (0.5 mg once daily) or placebo. A total of 4745 patients were enrolled; 2366 patients were assigned to the colchicine group, and 2379 to the placebo group. Patients were followed for a median of 22.6 months.
# The primary efficacy end point was a composite of death from cardiovascular causes, resuscitated cardiac arrest, myocardial infarction, stroke, or urgent hospitalization for angina leading to coronary revascularization. The components of the primary end point and safety were also assessed.
# In this randomized, double-blind, placebo-controlled, investigator-initiated trial, we assigned patients in a 1:1 ratio to receive either colchicine (at a dose of 0.5 mg once daily) or placebo. The trial protocol, available at NEJM.org, was designed by a trial steering committee. The protocol was approved by the institutional review board at each of the 167 centers in the 12 countries that participated in the trial (available at NEJM.org). All trial support activities, including project coordination, data management, site monitoring, and statistical oversight and analyses, were performed at the Montreal Health Innovations Coordinating Center. Potential trial end-point events were adjudicated by an independent clinical end-point committee composed of experienced cardiologists and neurologists who were unaware of the trial-group assignments. The trial was overseen by a data and safety monitoring board of independent experts. The trial medication and matching placebo were provided by Pharmascience.
# Patients were excluded if they had severe heart failure, a left ventricular ejection fraction of less than 35%, stroke within the previous 3 months, a type 2 index myocardial infarction, coronary-bypass surgery either within the previous 3 years or planned, a history of noncutaneous cancer within the previous 3 years, inflammatory bowel disease or chronic diarrhea, neuromuscular disease or a nontransient creatine kinase level that was greater than three times the upper limit of the normal range (unless due to infarction), clinically significant nontransient hematologic abnormalities, severe renal disease with a serum creatinine level that was greater than two times the upper limit of the normal range; severe hepatic disease, drug or alcohol abuse, current or planned long-term systemic glucocorticoid therapy, or a history of clinically significant sensitivity to colchicine. (Details regarding eligibility criteria are provided herein.)
# The primary efficacy end point was a composite of death from cardiovascular causes, resuscitated cardiac arrest, myocardial infarction, stroke, or urgent hospitalization for angina leading to coronary revascularization in a time-to-event analysis.
# The secondary end points consisted of the components of the primary efficacy end point; a composite of death from cardiovascular causes, resuscitated cardiac arrest, myocardial infarction, or stroke; and total mortality in time-to-event analyses. Coronary revascularization, hospitalization for heart failure, atrial fibrillation, and deep venous thrombosis or pulmonary embolus were prespecified as exploratory end points in the protocol.
# The efficacy analyses were conducted with the use of positively adjudicated data and according to the intention-to-treat principle. The primary end point was compared between the two trial groups with the use of a log-rank test, and the hazard ratio from a Cox proportional-hazards model, with a 95% confidence interval, was calculated. A Cox proportional-hazards model with adjustment for important baseline characteristics was also used as prespecified in the protocol.
# The analysis of the primary end point was repeated in the per-protocol population (i.e., patients without major protocol deviations). […]
# [1] = ITT, N=2366, first and recurrent events
# [2] = colchicine vs placebo, ITT, listed as colchicine
# [3] = colchicine vs placebo, per-protocol population
smiles,measurement,setting,value
"COc1cc2c(c(OC)c1OC)-c1ccc(OC)c(=O)cc1[C@@H](NC(C)=O)CC2 [Colchicine, colchicine]",risk of ischemic cardiovascular events / primary composite efficacy end point versus placebo (in words),,statistically significant lower risk of ischemic cardiovascular events than placebo
same,risk of ischemic cardiovascular events / primary composite efficacy end point versus placebo (in words),listed as colchicine,significantly lower percentage of patients with ischemic cardiovascular events than placebo
same,"Time to first primary endpoint, Adjusted Hazard Ratio (95% CI)","Colchicine vs. Placebo, multivariable Cox regression adjusted for age, diabetes, prior revascularization, prior heart failure",0.78 (0.62-0.98)
same,"Atrial fibrillation, number of patients","ITT, N=2366, 0.5 mg once daily",36
same,"Atrial fibrillation, percent","ITT, N=2366, 0.5 mg once daily",1.5%
same,"Death from cardiovascular causes, number of patients","ITT, N=2366, 0.5 mg once daily",20
same,"Death from cardiovascular causes, percent","ITT, N=2366, 0.5 mg once daily",0.8%
same,"Death, number of patients","ITT, N=2366, 0.5 mg once daily",43
same,"Death, percent","ITT, N=2366, 0.5 mg once daily",1.8%
same,"Deep venous thrombosis or pulmonary embolus, number of patients","ITT, N=2366, 0.5 mg once daily",10
same,"Deep venous thrombosis or pulmonary embolus, percent","ITT, N=2366, 0.5 mg once daily",0.4%
same,"Myocardial infarction, number of patients","ITT, N=2366, 0.5 mg once daily",89
same,"Myocardial infarction, percent","ITT, N=2366, 0.5 mg once daily",3.8%
same,"Primary composite end point, number of patients","ITT, N=2366, 0.5 mg once daily",131
same,"Primary composite end point, percent of patients","ITT, N=2366, 0.5 mg once daily",5.5%
same,"Resuscitated cardiac arrest, number of patients","ITT, N=2366, 0.5 mg once daily",5
same,"Resuscitated cardiac arrest, percent","ITT, N=2366, 0.5 mg once daily",0.2%
same,"Secondary composite end point (CV death, resuscitated cardiac arrest, MI, stroke), number of patients","ITT, N=2366, 0.5 mg once daily",111
same,"Secondary composite end point, percent","ITT, N=2366, 0.5 mg once daily",4.7%
same,"Stroke, number of patients","ITT, N=2366, 0.5 mg once daily",5
same,"Stroke, percent","ITT, N=2366, 0.5 mg once daily",0.2%
same,"Urgent hospitalization for angina leading to revascularization, number of patients","ITT, N=2366, 0.5 mg once daily",25
same,"Urgent hospitalization for angina leading to revascularization, percent","ITT, N=2366, 0.5 mg once daily",1.1%
same,Total number of primary endpoint events (first and recurrent),"ITT, N=2366, 52949 patient-months of follow-up",154
same,Number of patients with 0 primary endpoint events,[1],2235
same,Number of patients with 1 primary endpoint event,[1],111
same,Number of patients with 2 primary endpoint events,[1],18
same,Number of patients with 3 primary endpoint events,[1],1
same,Number of patients with 4 primary endpoint events,[1],1
same,Rate of primary endpoint events per 100 patient-months,[1],0.29 per 100 patient-months
same,"Atrial fibrillation, Hazard Ratio (95% CI)","colchicine vs placebo, ITT",0.93 (0.59-1.46)
same,"Death from cardiovascular causes, Hazard Ratio (95% CI)","colchicine vs placebo, ITT",0.84 (0.46-1.52)
same,"Death, Hazard Ratio (95% CI)","colchicine vs placebo, ITT",0.98 (0.64-1.49)
same,"Deep venous thrombosis or pulmonary embolus, Hazard Ratio (95% CI)","colchicine vs placebo, ITT",1.43 (0.54-3.75)
same,"Myocardial infarction, Hazard Ratio (95% CI)","colchicine vs placebo, ITT",0.91 (0.68-1.21)
same,"Resuscitated cardiac arrest, Hazard Ratio (95% CI)","colchicine vs placebo, ITT",0.83 (0.25-2.73)
same,"Secondary composite end point, Hazard Ratio (95% CI)","colchicine vs placebo, ITT",0.85 (0.66-1.10)
same,"Stroke, Hazard Ratio (95% CI)","colchicine vs placebo, ITT",0.26 (0.10-0.70)
same,"Total primary endpoint events, Hazard Ratio (95% CI), Andersen-Gill model","colchicine vs placebo, ITT",0.69 (0.54; 0.88)
same,"Total primary endpoint events, Hazard Ratio (95% CI), WLW model 1st Event","colchicine vs placebo, ITT",0.77 (0.61; 0.96)
same,"Total primary endpoint events, Hazard Ratio (95% CI), WLW model 2nd Event","colchicine vs placebo, ITT",0.73 (0.48; 1.11)
same,"Total primary endpoint events, Hazard Ratio (95% CI), WLW model 3rd Event","colchicine vs placebo, ITT",0.64 (0.37; 1.10)
same,"Total primary endpoint events, Hazard Ratio (95% CI), WLW model Average","colchicine vs placebo, ITT",0.77 (0.61; 0.96)
same,"Urgent hospitalization for angina leading to revascularization, Hazard Ratio (95% CI)","colchicine vs placebo, ITT",0.50 (0.31-0.81)
same,"Total primary endpoint events, Rate Ratio (95% CI), Negative binomial model","colchicine vs placebo, ITT",0.66 (0.51; 0.86)
same,"Total primary endpoint events, Rate Ratio (95% CI), Negative binomial model",[2],0.66
same,"Primary composite end point, Hazard Ratio (95% CI)","colchicine vs placebo, ITT, time to first event",0.77
same,"Death from cardiovascular causes, Hazard Ratio (95% CI)",[2],0.84
same,"Myocardial infarction, Hazard Ratio (95% CI)",[2],0.91
same,"Resuscitated cardiac arrest, Hazard Ratio (95% CI)",[2],0.83
same,"Secondary composite end point, Hazard Ratio (95% CI)",[2],0.85
same,"Stroke, Hazard Ratio (95% CI)",[2],0.26
same,"Urgent hospitalization for angina leading to revascularization, Hazard Ratio (95% CI)",[2],0.50
same,"Primary endpoint, hazard ratio","colchicine vs placebo, men, per-protocol population",0.70 (0.52; 0.93)
same,"MI, Hazard Ratio (95% CI)",[3],0.84 (0.62-1.14)
same,"Primary endpoint, Hazard Ratio (95% CI)",[3],0.71 (0.56-0.90)
same,"Resuscitated cardiac arrest, Hazard Ratio (95% CI)",[3],1.00 (0.29-3.46)
same,"Stroke, Hazard Ratio (95% CI)",[3],0.26 (0.10-0.71)
same,"Urgent hospitalization for angina requiring revascularization, Hazard Ratio (95% CI)",[3],0.47 (0.28-0.78)
same,"Primary endpoint, Hazard Ratio (95% CI)","colchicine vs placebo, per-protocol population, listed as colchicine",0.71
same,"Primary efficacy composite endpoint, Hazard ratio","colchicine vs placebo, subgroup Active smoker",0.93

# Reference: patent publication US12514832B2, “Methods for using low-dose colchicine after myocardial infarction” (INSTITUT DE CARDIOLOGIE DE MONTREAL, priority 2019, dated 2026)
